Test results: patent US6762174B1 (priority 1998, dated 2004)
Where two headings read alike, the source gives them in different places.

Experiments:
[1] = system: B16 melanoma; type: in vivo, female BDF1 mice
[2] = system: MOPC-315 myeloma; assay: MOPC-315 Myeloma study #1: β-alethine ip day 2 (1 × 10^6 tumor cells)

NCCC(=O)NCCSSCCNC(=O)CCN [BT, β-alethine]
Primary Tumor Size (Median RTV) ([1]; BT 30 pg/kg alone, day 0): 1 | Primary Tumor Size (Median RTV) ([1]; BT 30 pg/kg alone, day 4): 1.0 | Primary Tumor Size (Median RTV) ([1]; BT 30 pg/kg alone, day 7): 1.8 | Primary Tumor Size (Median RTV) ([1]; BT 30 pg/kg alone, day 10): 6.0 | Primary Tumor Size (Median RTV) ([1]; BT 30 pg/kg alone, day 14): 17.3 | Primary Tumor Size (Median RTV) ([1]; BT 30 pg/kg alone, day 17): 62.0 | Primary Tumor Size (Median RTV) ([1]; BT 30 ng/kg alone, day 0): 1 | Primary Tumor Size (Median RTV) ([1]; BT 30 ng/kg alone, day 4): 1.0 | Primary Tumor Size (Median RTV) ([1]; BT 30 ng/kg alone, day 7): 3.1 | Primary Tumor Size (Median RTV) ([1]; BT 30 ng/kg alone, day 10): 8.1 | Primary Tumor Size (Median RTV) ([1]; BT 30 ng/kg alone, day 14): 15.7 | Primary Tumor Size (Median RTV) ([1]; BT 30 ng/kg alone, day 17): 32.4 | Primary Tumor Size (Median RTV) ([1]; BT 30 ug/kg alone, day 0): 1 | Primary Tumor Size (Median RTV) ([1]; BT 30 ug/kg alone, day 4): 1.0 | Primary Tumor Size (Median RTV) ([1]; BT 30 ug/kg alone, day 7): 1.3 | Primary Tumor Size (Median RTV) ([1]; BT 30 ug/kg alone, day 10): 5.5 | Primary Tumor Size (Median RTV) ([1]; BT 30 ug/kg alone, day 14): 16.6 | Primary Tumor Size (Median RTV) ([1]; BT 30 ug/kg alone, day 17): 30.4 | Primary Tumor Size (Median RTV) ([1]; BT 30 mg/kg alone, day 0): 1 | Primary Tumor Size (Median RTV) ([1]; BT 30 mg/kg alone, day 4): 1.7 | Primary Tumor Size (Median RTV) ([1]; BT 30 mg/kg alone, day 7): 3.3 | Primary Tumor Size (Median RTV) ([1]; BT 30 mg/kg alone, day 10): 7.5 | Primary Tumor Size (Median RTV) ([1]; BT 30 mg/kg alone, day 14): 23.2 | Primary Tumor Size (Median RTV) ([1]; BT 30 mg/kg alone, day 17): 34.8 | Primary Tumor Size (Median RTV) ([1]; BT 30 fg/kg alone, day 0): 1 | Primary Tumor Size (Median RTV) ([1]; BT 30 fg/kg alone, day 4): 1.7 | Primary Tumor Size (Median RTV) ([1]; BT 30 fg/kg alone, day 7): 2.4 | Primary Tumor Size (Median RTV) ([1]; BT 30 fg/kg alone, day 10): 7.0 | Primary Tumor Size (Median RTV) ([1]; BT 30 fg/kg alone, day 14): 16.1 | Primary Tumor Size (Median RTV) ([1]; BT 30 fg/kg alone, day 17): 41.6 | Animals Surviving ([2]; BT 3 ng/kg, day 10): 10 | Animals Surviving ([2]; BT 3 ng/kg, day 11): 10 | Animals Surviving ([2]; BT 3 ng/kg, day 12): 10 | Animals Surviving ([2]; BT 3 ng/kg, day 13): 9 | Animals Surviving ([2]; BT 3 ng/kg, day 14): 8 | Animals Surviving ([2]; BT 3 ng/kg, day 15): 7 | Animals Surviving ([2]; BT 3 ng/kg, day 16): 6 | Animals Surviving ([2]; BT 3 ng/kg, day 17): 4 | Animals Surviving ([2]; BT 3 ng/kg, day 18): 3 | Animals Surviving ([2]; BT 3 ng/kg, day 19): 3 | Animals Surviving ([2]; BT 3 ng/kg, day 20): 2 | Animals Surviving ([2]; BT 3 ng/kg, day 21): 0 | Animals Surviving ([2]; BT 100 μg/kg, day 10): 10 | Animals Surviving ([2]; BT 100 μg/kg, day 11): 10 | Animals Surviving ([2]; BT 100 μg/kg, day 12): 10 | Animals Surviving ([2]; BT 100 μg/kg, day 13): 10 | Animals Surviving ([2]; BT 100 μg/kg, day 14): 7 | Animals Surviving ([2]; BT 100 μg/kg, day 15): 6 | Animals Surviving ([2]; BT 100 μg/kg, day 16): 6 | Animals Surviving ([2]; BT 100 μg/kg, day 17): 5 | Animals Surviving ([2]; BT 100 μg/kg, day 18): 3 | Animals Surviving ([2]; BT 100 μg/kg, day 19): 3 | Animals Surviving ([2]; BT 100 μg/kg, day 20): 1 | Animals Surviving ([2]; BT 100 μg/kg, day 21): 0 | Animals Surviving ([2]; BT 3 mg/kg, day 10): 10 | Animals Surviving ([2]; BT 3 mg/kg, day 11): 10 | Animals Surviving ([2]; BT 3 mg/kg, day 12): 10 | Animals Surviving ([2]; BT 3 mg/kg, day 13): 10 | Animals Surviving ([2]; BT 3 mg/kg, day 14): 7 | Animals Surviving ([2]; BT 3 mg/kg, day 15): 4 | Animals Surviving ([2]; BT 3 mg/kg, day 16): 4 | Animals Surviving ([2]; BT 3 mg/kg, day 17): 3 | Animals Surviving ([2]; BT 3 mg/kg, day 18): 2 | Animals Surviving ([2]; BT 3 mg/kg, day 19): 2 | Animals Surviving ([2]; BT 3 mg/kg, day 20): 1 | Animals Surviving ([2]; BT 3 mg/kg, day 21): 1 | Animals Surviving ([2]; BT 3 mg/kg, day 22): 1 | Animals Surviving ([2]; BT 3 mg/kg, day 23): 1 | Animals Surviving ([2]; BT 3 mg/kg, day 24): 0 | Animals Surviving ([2]; BT 30 fg/kg, day 10): 10 | Animals Surviving ([2]; BT 30 fg/kg, day 11): 10 | Animals Surviving ([2]; BT 30 fg/kg, day 12): 10 | Animals Surviving ([2]; BT 30 fg/kg, day 13): 8 | Animals Surviving ([2]; BT 30 fg/kg, day 14): 5 | Animals Surviving ([2]; BT 30 fg/kg, day 15): 3 | Animals Surviving ([2]; BT 30 fg/kg, day 16): 3 | Animals Surviving ([2]; BT 30 fg/kg, day 17): 3 | Animals Surviving ([2]; BT 30 fg/kg, day 18): 2 | Animals Surviving ([2]; BT 30 fg/kg, day 19): 2 | Animals Surviving ([2]; BT 30 fg/kg, day 20): 0 | Animals Surviving ([2]; BT 30 fg/kg, day 21): 0
